According to US20220162215A1, “COMPOSITIONS AND METHODS OF USING THE SAME FOR TREATMENT OF NEURODEGENERATIVE AND MITOCHONDRIAL DISEASE” (MITOKININ, INC., priority 2019, published 2022):
≈ marks a conversion by molar mass, not a printed value. Like-named read-outs stand apart in the source and are kept apart here.

What was measured:
[1] = Solubility in 1× PBS; format: physicochemical
[2] = system: HeLa MKYP cells; assay: Toxicity / cell death measured by DAPI staining (take-up); format: cell-based; conditions: for Toxicity (% positive for DAPI takeup @ 50 μM): Table 3; for Max cell death at 25 uM compound, 1 uM FO / Cell death at 25 μM (no FO): Table 3 Supplement B
Procedure: H2O2 treatment was performed as a control for cell death as measured by DAPI staining.
(§1) Briefly, HeLa MKYP cells were plated at 10,000 cells/well in 96 well plates along with compounds at various concentrations. Following 16 hrs of incubation, cells were treated with 1 uM FCCP/oligomycin for 6 hours, then analyzed via FACS for the presence of mitochondria in lysosomes (as determined by an emissions spectrum shift from the pH-sensitive mtKeima tag).

[3] = system: HeLa MKYP cells; assay: Human mitophagy assay (HeLa MKYP, mtKeima FACS, FCCP/oligomycin); format: cell-based
Procedure: as §1, with “tag). Examples are shown in FIG. 1 through FIG. 13 below.” for “tag).”

[4] = system: mitotoxicity; assay: Mitotox safety margin (therapeutic window); format: cell-based
[5] = Homo sapiens, HeLa, Table 3, read-out: Potency at 1 μM F/O toxin* (EC50 of mitophagy activation)
[6] = Homo sapiens, HeLa, Table 3 Supplement B, read-out: Mitophagy EC50 (HeLa mKeima assay)
[7] = Table 3, read-out: Potency at 1 μM F/O toxin* (EC50 of mitophagy activation)

SMILES	solubility [1] [µM]	Toxicity (% positive for DAPI takeup @ 50 μM) [2] [%]	Max cell death at 25 uM compound, 1 uM FO [2] [%]	Cell death at 25 μM (no FO) [2] [%]	EC50 [3, 5] [µM]	EC50 [3, 6] [µM]	EC50 [3, 7] [µM]	further results
CO[C@H]1COc2ccccc2[C@@H]1Nc1ncnc2[nH]c(C(F)(F)F)cc12 [Compound 98]	16.3 (≈ 5.94 µg/mL)	15.9						Max cell death at 25 uM compound, 1 uM FO ([2]; listed as EP-0037863): 15.865%; Cell death at 25 μM (no FO) ([2]; listed as EP-0037863): 3.66%; EC50 ([3]; Table 3 Supplement B, listed as EP-0037863, read-out: Mitophagy EC50 (HeLa mKeima assay)): 4 µM
O[C@@H]1Cc2ccccc2[C@@H]1Nc1ncnc2[nH]c(C(F)(F)F)cc12 [Compound 84]	194 (≈ 64.9 µg/mL)	35.6	35.6	5.5	9	9.04		
COc1ccc2c(c1)[C@@H](Nc1ncnc3[nH]c(C(F)(F)F)cc13)CCC2 [Compound 87]	1.2 (≈ 0.435 µg/mL)	5.9					9.5	Max cell death at 25 uM compound, 1 uM FO ([2]; listed as EP-0037131): 5.9%; Cell death at 25 μM (no FO) ([2]; listed as EP-0037131): 1.2%; EC50 ([3]; Table 3 Supplement B, listed as EP-0037131, read-out: Mitophagy EC50 (HeLa mKeima assay)): 9.46 µM
C[C@H]1CCc2ccccc2[C@H]1Nc1ncnc2[nH]c(C(F)(F)F)cc12 [Compound 85]		31.4				1.08	1.1	Max cell death at 25 uM compound, 1 uM FO ([2]; listed as EP-0037094): 31.4%; Cell death at 25 μM (no FO) ([2]; listed as EP-0037094): 7.13%; Mitotox safety margin (Therapeutic window) ([4]; class of the Ratio): + (ratio <10); Ratio** ([4]; highest concentration with no observable mitotoxicity (μM) divided by the EC50 (μM) of the compound): 7.74
Fc1ccc2c(c1)CCCC2Nc1ncnc2[nH]c(C(F)(F)F)cc12 (centres unmarked) [Compound 109]	1 (≈ 0.35 µg/mL)	30.1	30.1	3.27	> 50	1.06		
OC[C@H]1CCc2ccccc2[C@@H]1Nc1ncnc2[nH]c(C(F)(F)F)cc12 [Compound 95]	9.07 (≈ 3.29 µg/mL)	30.9	30.87	9.83	5.5	5.55		
COc1ccc2c(c1)[C@@H](Nc1ncnc3[nH]c(C(F)(F)F)cc13)CCC2 [Compound 86]	1.2 (≈ 0.435 µg/mL)	3.2					4	Max cell death at 25 uM compound, 1 uM FO ([2]; listed as EP-0037130): 3.18%; Cell death at 25 μM (no FO) ([2]; listed as EP-0037130): 1.18%; EC50 ([3]; Table 3 Supplement B, listed as EP-0037130, read-out: Mitophagy EC50 (HeLa mKeima assay)): 3.99 µM
CO[C@@H]1CCc2ccccc2[C@H]1Nc1ncnc2[nH]c(C(F)(F)F)cc12 [Compound 105]	1 (≈ 0.362 µg/mL)	18.4	18.4	15.3		22.1		
OC1CCc2ccccc2C1Nc1ncnc2[nH]c(C(F)(F)F)cc12 (centres unmarked) [Compound 91]	1 (≈ 0.348 µg/mL)	12.8	12.8	3.79	> 50			Mitophagy EC50 (HeLa mKeima assay) ([3]; Table 3 Supplement B): Minimal activity
CO[C@@H]1COc2ccccc2[C@@H]1Nc1ncnc2[nH]c(C(F)(F)F)cc12 [Compound 96]	23.8 (≈ 8.67 µg/mL)	12.1	12.11	3.4	1.6	1.63		
